Key:
[1] = tested on: Paw edema induced by carrageenin; test: Carrageenin Foot Edema (antiinflammatory activity); type: in vivo, male Sprague-Dawley rats; settings: Dose: 32 mg/kg, orally 60 minutes before phlogogen; edema volume 3 hours after 1% carrageenin; rats
Experimental: (1) Carrageenin Foot Edema
Five male Sprague-Dawley rats weighing about 200 g were used per group.
Paw edema was induced by subplantar injection of 1% carrageenin (0.1 ml/rat) into the right hind paw. The test drug was suspended in 0.5% methylcellulose and administered orally 60 minutes before phlogogen. Paw volume was measured with plethysmometer (Ugo Bazil Co., Ltd.) by water displacement immersing the paw to the lateral malleolus. The difference of paw volume before and 3 hours after the phlogogen was designated as edema volume.
The data were analyzed statistically by student's t-test.

[2] = tested on: writhing syndrome induced by acetic acid; test: Acetic Acid Induced Writhing (analgesic activity); type: in vivo, male ddY strain mice; settings: Dose: 32 mg/kg, orally 60 minutes before 0.6% acetic acid i.p.; observed from 3 to 13 minutes; mice
Experimental: (1) Acetic Acid Induced Writhing
Ten male ddY strain mice were used per group. To estimate the frequency of writhing syndrome, the animals were observed from 3 to 13 minutes after an intraperitoneal injection of 0.2 ml/10 g of 0.6% acetic acid. The drugs were given orally 60 minutes before acetic acid. The frequency of writhing syndrome in the treated animals was compared with that in the nontreated control animals.

Compound	Inhibition (%) of carrageenin foot edema [1]	Inhibition (%) of acetic acid induced writhing [2]
O=C(Nc1ccncc1)NN1CC=CCC1 [Compound A, N-[(4-Pyridylcarbamoyl)amino]-1,2,3,6-tetrahydropyridine]	41.4%	73.4%
O=C(Nc1cccnc1)NN1CC=CCC1 [Compound B, N-[(3-Pyridylcarbamoyl)amino]-1,2,3,6-tetrahydropyridine]	45.9%	95.5%
O=C(Nc1ccccn1)NN1CC=CCC1 [Compound C, N-[(2-Pyridylcarbamoyl)amino]-1,2,3,6-tetrahydropyridine]	50.9%	–
O=C(Nc1ccncn1)NN1CC=CCC1 [Compound D, N-[(4-Pyrimidinylcarbamoyl)amino]-1,2,3,6-tetrahydropyridine]	48.0%	68.5%
O=C(Nc1cnccn1)NN1CC=CCC1 [Compound E, N-(Pyrazinylcarbamoylamino)-1,2,3,6-tetrahydropyridine]	54.7%	–
O=C(Nc1ccc(Cl)nc1)NN1CC=CCC1 [Compound F, N-[[(2-Chloropyridin-5-yl)carbamoyl]amino]-1,2,3,6-tetrahydropyridine]	49.9%	75.1%
O=C(NN1CC=CCC1)NN1CCCC1 [Compound G, N-[(1-Pyrrolidinylcarbamoyl)amino]-1,2,3,6-tetrahydropyridine]	–	84.7%
O=C(NN1CC=CCC1)NN1CC=CCC1 [Compound H, N,N'-[Bis-(1,2,3,6-tetrahydropyridin-1-yl)]urea]	–	82.0%
